Measured values as given in patent publication US20030215517A1, “Process for production of crystals of an adjuvant substance, crystals obtained thereby and pharmaceutical preparations containing them” (priority 2002, published 2003).
Marks after values point to notes of the source that are not given here.

What was measured:
Format in all cases: physicochemical
[1] = Particle size development during crystallization with wet milling and temperature cycles (Example 1)
Procedure: In a sulfonation flask with a blade mixer and a heating/cooling bath 30 g of lactose monohydrate are dissolved in 100 g of water at 62° C. A rotor-stator dispersing apparatus (Ultra Turrax, T25 basic, with S25N-25F) is operated with a rotation speed of 12000 to 22000 rpm to prepare the solution. Then 300 g of ethanol are added. After 1 to 2 minutes crystallization begins at 25 to 35° C. The Ultra Turrax is operated for an additional 10 minutes and then is shut off.
The starting suspension obtained is heated at 50° C. and subsequently cooled within an interval of 1 hour at 20° C. This procedure is repeated still twice more.

[2] = Particle size distribution before and after drying (Sympatec HELOS, dry dispersion RODOS)
Procedure: The particle size distribution in Table I was measured with a Sympatec HELOS (H0445), dry dispersion system (RODOS), pressure 2 bar.

[3] = Particle size distribution of spray-dried microcrystals (Example 2); details: Example 2, microcrystals spray-dried from ethanol suspension
Procedure: (§1) Subsequently the suspension obtained in example 1 is filtered by means of a frit and washed with 100 ml of ethanol. The filter cake is suspended in 300 ml ethanol. The suspension is spray-dried under the following conditions in a laboratory spray-drier with two nozzles (2 mm) (QVF/Yamato):
(§2) Microcrystals are obtained in a separating filter of the spray-drier with the following particle size distribution: […]

[4] = Moisture content of spray-dried microcrystals (Example 2); details: Example 2, microcrystals spray-dried from ethanol suspension
Procedure: as §1, §2

[5] = Example 1, 1st Cycle (heated at 50° C., cooled to 20° C. within 1 hour)
[6] = Suspension, 7 percent by weight lactose monohydrate in EtOH/water 75/25 (w/w), before drying

## O.OC[C@H]1O[C@@H](O[C@H]2[C@H](O)[C@@H](O)C(O)O[C@@H]2CO)[C@H](O)[C@@H](O)[C@H]1O (stereo partly drawn) [lactose monohydrate]
[1]; [5]
  X50: 5 μm
  X100: 43 μm
[1]; Example 1, 2nd Cycle
  X50: 5.5 μm
  X100: 43 μm
[1]; Example 1, 3rd Cycle
  X50: 6 μm
  X100: 43 μm
[1]; Example 1, Starting Suspension
  X50: 3 μm
  X100: 30 μm
[2]; After spray-drying, dry powder
  X10 particle diameter: 2.25 μm
  X50 particle diameter: 6.0 μm
  X100 particle diameter: 43 μm
[2]; [6]
  X10 particle diameter: 2.11*** μm
  X50 particle diameter: 5.9 μm
  X100 particle diameter: 43 μm
[3]
  Particle size X10: 2.5 μm
  Particle size X50: 5.9 μm
  Particle size X100: 43 μm
[4]
  Moisture content: 4.5%
